The inhibition is the relative decrease from the control value, in per cent. The low end stands for little suppression, the high end for strong suppression.

The record followed here is patent US5958940A, “Tricyclic compounds useful as inhibitors of farnesyl-protein transferase” (Schering Corporation, priority 1997, dated 1999).

The assay deals with T1, farnesyl protein transferase (Rattus norvegicus, UniProt Q02293+Q04631).
T1 construct: partially purified rat brain farnesyl protein transferase (FPT); from tissue; host or cells: rat brain, partially purified
The assay is described as follows: FPT inhibition, in vitro enzyme assay (Ras-CVLS farnesylation by partially purified rat brain FPT). Type of assay: biochemical.

For the compound `O=C(NCc1cccnc1)[C@@H]1CCCN1C1c2ncc(Br)cc2CCc2cc(Cl)cc(Br)c21` (single isomer, unassigned) [Example 2 Isomer A, 1-(3,10-dibromo-8-chloro-6,11-dihydro-5H-benzo[5,6]cyclohepta[1,2-b]pyridine-11-yl)-N-(3-pyridinylmethyl)-2-pyrrolidine carboxamide], the inhibition at 0.3 µM (@0.3 μM) stood at 15%.

`O=C(NCc1cccnc1)[C@@H]1CCN1C1c2ccc(Cl)cc2CCc2cc(Br)cnc21` (single isomer, unassigned) [Example 3 Isomer B, 1-(3-bromo-8-chloro-6,11-dihydro-5H-benzo[5,6]cyclohepta[1,2-b]pyridine-11-yl)-N-(3-pyridinylmethyl)2-azetidine carboxamide] had an inhibition at 0.1 µM (@0.1 μM) of 17%.
